Data taken from ChEMBL document CHEMBL3351934, “Monocyclic 4-amino-6-(phenylamino)-1,3,5-triazines as inhibitors of human DNA topoisomerase IIα” (Bioorg Med Chem Lett, 2014).
Calls of active or inactive are those of the source. The calls are words filed in the database; no cut-off is given here.

Legend:
[1] = target: DNA topoisomerase 2-alpha (Homo sapiens, UniProt P11388); experiment: Inhibition of human DNA topoisomerase 2alpha using plasmid pNO1 substrate incubated at 37 degC for 30 mins by fluorimetry
Chain of DNA topoisomerase 2-alpha (P11388 whole entry): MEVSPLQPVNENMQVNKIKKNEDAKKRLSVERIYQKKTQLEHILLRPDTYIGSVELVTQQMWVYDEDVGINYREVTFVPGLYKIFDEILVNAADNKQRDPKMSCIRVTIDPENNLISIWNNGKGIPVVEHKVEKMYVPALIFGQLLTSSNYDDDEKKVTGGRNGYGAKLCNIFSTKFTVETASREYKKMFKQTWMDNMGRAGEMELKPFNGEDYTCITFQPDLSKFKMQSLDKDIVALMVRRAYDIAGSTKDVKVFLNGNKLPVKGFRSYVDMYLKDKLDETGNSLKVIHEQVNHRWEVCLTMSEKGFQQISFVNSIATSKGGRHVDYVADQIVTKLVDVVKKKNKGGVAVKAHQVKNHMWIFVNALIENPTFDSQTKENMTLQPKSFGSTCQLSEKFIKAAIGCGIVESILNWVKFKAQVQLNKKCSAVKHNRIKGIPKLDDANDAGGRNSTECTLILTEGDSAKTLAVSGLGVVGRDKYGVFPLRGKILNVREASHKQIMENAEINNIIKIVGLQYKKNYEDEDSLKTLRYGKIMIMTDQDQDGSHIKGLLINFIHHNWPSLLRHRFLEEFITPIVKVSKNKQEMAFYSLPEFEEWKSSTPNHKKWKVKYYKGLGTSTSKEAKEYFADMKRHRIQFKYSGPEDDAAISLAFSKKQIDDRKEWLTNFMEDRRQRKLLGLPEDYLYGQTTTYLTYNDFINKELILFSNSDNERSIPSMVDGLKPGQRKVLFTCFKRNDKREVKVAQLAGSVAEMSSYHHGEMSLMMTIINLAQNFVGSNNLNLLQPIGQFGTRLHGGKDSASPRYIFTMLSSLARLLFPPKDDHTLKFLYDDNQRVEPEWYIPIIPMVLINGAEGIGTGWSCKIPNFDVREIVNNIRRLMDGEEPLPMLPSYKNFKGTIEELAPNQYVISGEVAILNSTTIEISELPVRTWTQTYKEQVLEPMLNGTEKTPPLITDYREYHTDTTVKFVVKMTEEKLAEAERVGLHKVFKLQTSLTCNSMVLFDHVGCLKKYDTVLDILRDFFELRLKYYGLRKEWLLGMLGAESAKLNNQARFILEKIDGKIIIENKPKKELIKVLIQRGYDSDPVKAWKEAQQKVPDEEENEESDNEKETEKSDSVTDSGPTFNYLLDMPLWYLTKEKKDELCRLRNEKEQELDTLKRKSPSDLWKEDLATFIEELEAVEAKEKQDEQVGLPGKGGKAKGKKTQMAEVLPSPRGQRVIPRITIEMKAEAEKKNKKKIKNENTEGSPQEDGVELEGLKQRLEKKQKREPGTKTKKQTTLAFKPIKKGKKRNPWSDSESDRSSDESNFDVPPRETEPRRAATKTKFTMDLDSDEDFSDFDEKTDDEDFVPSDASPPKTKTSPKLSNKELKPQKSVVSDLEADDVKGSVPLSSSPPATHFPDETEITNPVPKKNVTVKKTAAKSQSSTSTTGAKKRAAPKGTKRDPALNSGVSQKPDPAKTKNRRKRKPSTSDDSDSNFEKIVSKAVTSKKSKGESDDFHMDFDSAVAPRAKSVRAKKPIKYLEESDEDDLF

HepG2 [2] = experiment: Cytotoxic activity against human HepG2 cells assessed as reduction in cell viability at 50 to 100 uM after 24 hrs by MTT assay; format: functional, cell-based
[3] = Cytotoxic activity against HUVEC assessed as reduction in cell viability at 200 uM after 24 hrs by MTT assay; format: cell-based; settings: human, HUVEC cells; read-out: INH
HUVEC = experiment: Cytotoxic activity against HUVEC assessed as reduction in cell viability after 24 hrs by MTT assay; format: cell-based, Homo sapiens
HepG2 [4] = experiment: Cytotoxic activity against human HepG2 cells assessed as reduction in cell viability at 200 uM after 24 hrs by MTT assay; format: functional; settings: HepG2, 24 h
MCF7 [5] = experiment: Cytotoxic activity against human MCF7 cells assessed as reduction in cell viability at 6.25 to 25 after 24 hrs by MTT assay; format: functional, cell-based
MCF7 [6] = experiment: Cytotoxic activity against human MCF7 cells assessed as reduction in cell viability at 200 uM after 24 hrs by MTT assay; format: functional, cell-based
HepG2 [7] = experiment: Cytotoxic activity against human HepG2 cells assessed as reduction in cell viability at 6.25 to 25 after 24 hrs by MTT assay; format: functional, cell-based
HepG2 [8] = experiment: Cytotoxic activity against human HepG2 cells assessed as reduction in cell viability after 24 hrs by MTT assay; settings: HepG2, 24 h
MCF7 [9] = experiment: Cytotoxic activity against human MCF7 cells assessed as reduction in cell viability after 24 hrs by MTT assay; settings: MCF7, 24 h

| IC50 [1] | SMILES | also measured |
| --- | --- | --- |
| > 1000 µM | C[C@H](Sc1nc(N)nc(N)n1)C(=O)N1CCOCC1 |  |
| > 1000 µM | Nc1nc(N)nc(CSc2nnc(-c3cccnc3)o2)n1 |  |
| > 1000 µM | Cc1cc(O)nc(N/N=C\c2ccncc2)n1 |  |
| > 1000 µM | COc1ccc(Nc2nc(N)nc(CSC(=S)N3CCCCC3)n2)cc1 |  |
| > 1000 µM | Nc1nc(CSc2nnc(C3CC3)o2)nc(Nc2ccc(F)cc2)n1 |  |
| 337 µM | Nc1nc(CSc2nnn[nH]2)nc(Nc2ccc(F)cc2)n1 |  |
| > 1000 µM | Nc1nc(CSc2nnnn2C2CCCC2)nc(Nc2ccc(F)cc2)n1 |  |
| > 1000 µM | COc1ccc(CNc2ncccc2C(N)=O)cc1OC |  |
| 229 µM | COc1ccc(Nc2nc(N)nc(CSC(=S)N3CCOCC3)n2)cc1 | inhibition (HepG2 [2]): Active; cytotoxicity at 24 h, 200 µM [3]: 90%; EC50 (HUVEC; Homo sapiens, HUVEC): 122 µM; inhibition (INH) (HUVEC; human, huvec): Dose-dependent effect; inhibition at 200 µM (HepG2 [4]): 90%; inhibition (MCF7 [5]): inactive; inhibition (MCF7 [6]): Active; inhibition (HepG2 [7]): inactive; EC50 (HepG2 [8]): 20.5 µM; EC50 (MCF7 [9]): 129 µM |
| > 1000 µM | COc1cccc(C(=O)NCc2nnc(S)n2-c2ccc(Cl)c(Cl)c2)c1 |  |
| > 1000 µM | Cc1cc(O)nc(NCCCn2ccnc2)n1 |  |
| > 1000 µM | Cc1cc(CNc2nc(C)ccc2C(N)=O)ccn1 |  |
| > 1000 µM | CCCn1ccnc1SCc1nc(N)nc(Nc2ccc(F)cc2)n1 |  |
| > 1000 µM | Nc1nc(CSC2CCCC2)nc(Nc2ccc(F)cc2)n1 |  |
| > 1000 µM | CN1CCN(C(=S)SCc2nc(N)nc(Nc3ccc(F)cc3)n2)CC1 |  |
| > 1000 µM | O=C(NCc1n[nH]c(=S)n1-c1ccc(F)cc1)c1ccccc1F |  |
| > 1000 µM | CN(C(=S)SCc1nc(N)nc(Nc2ccc(F)cc2)n1)C1CCCCC1 |  |
| > 1000 µM | COc1cccc(C(=O)NCc2n[nH]c(=S)n2-c2ccccc2Cl)c1 |  |
| > 1000 µM | Cc1cc(CNc2nc3c(cc2C(N)=O)CCC3)ccn1 |  |
| > 1000 µM | Cc1cc(O)nc(N/N=C\c2cccnc2)n1 |  |
| > 1000 µM | C[C@H](Sc1nc(N)cc(O)n1)C(=O)N1CCOCC1 |  |
| > 1000 µM | Cc1cc(CNc2ncccc2C(N)=O)ccn1 |  |
| 139 µM | Nc1nc(CSC(=S)N2CCOCC2)nc(Nc2ccc(F)cc2)n1 |  |
| 85 µM | Nc1nc(SCCc2ccccc2)c2nc[nH]c2n1 |  |
| > 1000 µM | O=C(NCc1n[nH]c(=S)n1-c1ccccc1)c1ccccc1C(F)(F)F |  |
| > 1000 µM | Cn1nnnc1SCc1nc(N)nc(Nc2ccc(F)cc2)n1 |  |
